Data set [1] can be described thus: pH characteristics of triazole derivatives (fluorescence intensity vs pH). The data set is classed as physicochemical. The note with it: 1 μM in sodium phosphate buffers; for pKa: sodium phosphate buffers of various pH, from fluorescence intensity vs pH. The procedure:
Triazole derivatives prepared by the method disclosed in U.S. Pat. No. 5,874,590 (DAF-2T and DAF-5T, the structures thereof are shown below) and DAF-FM T were dissolved at 1 μM in sodium phosphate buffers adjusted to each of the pH values, and fluorescence intensity was measured. The excitation wavelength and fluorescence wavelength were 495-515 (nm) for DAF-2T, 505-520 (nm) for DAF-5T and 495-515 (nm) for DAF-FMT, respectively. […] As for DAF-FM T, a dissociable proton was not present in the triazole ring, and therefore the compound was not influenced by pKa and it gave a constant fluorescence intensity at pH 5.8 or higher.

Data set [2] is described as follows: Photostability under direct sunlight irradiation. The data set is classed as physicochemical. The note with it: 1 μM in 0.1 M sodium phosphate buffer pH 7.4, direct sunlight; versus DAF-1T, DAF-2T, DAF-4T, DAF-5T. The procedure:
Photostability of the triazole derivatives produced by the method disclosed in U.S. Pat. No. 5,874,590 (DAF-1T, DAF-2T, DAF-4T and DAF-5T, the structures thereof are shown below) and DAF-FM T was tested by direct irradiation with sunlight. The dyes were each dissolved in 0.1 M sodium phosphate buffer (pH 7.4) at a concentration of 1 μM, and the solution was put into vials and exposed to direct sunlight under fine weather for a certain period of time. Samples were collected from the solutions, and fluorescence intensity was measured and compared with respective initial values.

In data set [3] the test system is Bovine aorta endothelial cells. The data set is described as follows: Measurement of extracellularly produced nitrogen monoxide. The data set is classed as cell-based. The note with it: 7 μM in PBS(+), 37° C., Ex 500 nm, Em 515 nm, stimulation with A23187, control with inhibitor of nitrogen monoxide synthetase. Here is the method:
Bovine aorta endothelial cells were cultured, and the cells were removed with trypsin and collected by centrifugation, and then suspended in 2 ml of PBS(+) in which DAF-FM (7 μM) was dissolved. These cells were transferred to a cell for fluorescence measurement, and fluorescence intensity was measured (Ex.: 500 nm, Em.: 515 nm) at 37° C. with stirring. The cells were stimulated with a calcium ionophore A23187 during the measurement so that the cells generated nitrogen monoxide. As control experiments, an inhibitor of nitrogen monoxide synthetase was added after the above measurement, or alternatively, the measurement was performed in the presence of the inhibitor from the beginning.

Where [4] appears, read: read-out: pKa of the hydroxyl group.
The mark [5] stands for this setting: read-out: pKa of the proton of the triazole ring.

Like-named read-outs stand apart in the source and are kept apart here.

Take `O=C1OC2(c3ccc(O)cc3Oc3cc(O)ccc32)c2cc3nn[nH]c3cc21` [DAF-2T]: the pKa (in general, the negative logarithm of the acid dissociation constant) in data set [1] (setting [4]) worked out at 6.27; in data set [1] (setting [5]), 7.94.

Turning to `O=C1OC2(c3cc(Cl)c(O)cc3Oc3cc(O)c(Cl)cc32)c2cc3nn[nH]c3cc21` [DAF-5T], the results for the pKa in data set [1] (setting [4]) and in data set [1] (setting [5]) were 4.59 and 7.41, respectively.

For the compound `Cn1nnc2c3c(ccc21)C1(OC3=O)c2cc(F)c(O)cc2Oc2cc(O)c(F)cc21` [DAF-FM T, 2″,7″-Difluoro-3″,6″-dihydroxy-spiro[1′-methyltriazolo[4′,5′:4,5]isobenzofuran-1(3H),9″-[9H]xanthen]-3-one], the “pH at which fluorescence intensity is constant” value in data set [1] (Ex/Em 495-515 nm) is on record as not below 5.8. Further, in data set [1] (setting [4]), the pKa is 4.38. Moreover, the “photostability (fluorescence intensity compared with initial value)” value in data set [2] is “higher photostability than the other triazole compounds”.

For the compound `CNc1ccc2c(c1N)C(=O)OC21c2cc(F)c(O)cc2Oc2cc(O)c(F)cc21` [DAF-FM, 4-Amino-5-(N-methylamino)-2′,7′-difluoro-3′,6′-dihydroxy-spiro[isobenzofuran-1(3H),9′-[9H]xanthen]-3-one], in data set [3], the “fluorescence intensity increase on nitrogen monoxide generation by the cells” value was “increase of fluorescence intensity was caused by nitrogen monoxide”.

The record behind these values is patent US7618997B2, “Diaminofluorescein derivatives” (Sekisui Medical Co., Ltd., priority 2000, dated 2009).
